Test results from ChEMBL document CHEMBL1201862, “PubChem BioAssay data set” (2004).
Activity calls are given as the source filed them.

Tests used:
[1] = target: Potassium voltage-gated channel subfamily KQT member 2 (Rattus norvegicus, UniProt O88943); assay: potentiation of rat KCNQ2 current – cell-based, retigabine-insensitive compounds, dose response (AID 2654); assay type: functional
Beta-galactosidase = Beta-galactosidase (Escherichia coli, UniProt Q8VNN2); assay: detection-enzyme interference by beta-gal modulators – biochemical, E. coli enzyme, set 3, artefact control for CCR6 antagonist project, dose response (AID 504712); assay type: functional
[2] = target: Mitochondrial peptide methionine sulfoxide reductase (Bos taurus, UniProt P54149); assay: Absorbance-based biochemical high throughput dose response assay for activators of Methionine sulfoxide reductase A (MsrA).; assay type: functional
Mitochondrial peptide methionine sulfoxide reductase, sequence (P54149 whole entry): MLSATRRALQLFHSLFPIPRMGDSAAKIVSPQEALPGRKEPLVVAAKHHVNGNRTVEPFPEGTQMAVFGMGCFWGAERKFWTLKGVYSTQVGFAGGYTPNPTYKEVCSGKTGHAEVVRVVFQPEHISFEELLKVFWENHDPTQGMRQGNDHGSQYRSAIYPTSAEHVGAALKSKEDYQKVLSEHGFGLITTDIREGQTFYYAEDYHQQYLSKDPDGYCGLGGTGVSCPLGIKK

[3] = Luminescence Cell-Based Dose Response HTS to Identify Activators of Luciferase Translation or Activity in H4 […] Cells. [Related pubchem assays: 1829 (Project Summary), 1814 (Primary HTS)]; assay type: functional
H4 = assay: Luminescence Cell-Based Dose Response HTS to Identify Activators of 5'UTR Stem-Loop Driven Prion Protein mRNA Translation in H4 Neuroglioblastoma Cells. [Related pubchem assays: 1829 (Project Summary), 1814 (Primary HTS)]; assay type: functional; conditions: Homo sapiens
[4] = target: T1, Alkaline phosphatase, tissue-nonspecific isozyme (Homo sapiens, UniProt P05186)
T1 sequence (P05186 whole entry): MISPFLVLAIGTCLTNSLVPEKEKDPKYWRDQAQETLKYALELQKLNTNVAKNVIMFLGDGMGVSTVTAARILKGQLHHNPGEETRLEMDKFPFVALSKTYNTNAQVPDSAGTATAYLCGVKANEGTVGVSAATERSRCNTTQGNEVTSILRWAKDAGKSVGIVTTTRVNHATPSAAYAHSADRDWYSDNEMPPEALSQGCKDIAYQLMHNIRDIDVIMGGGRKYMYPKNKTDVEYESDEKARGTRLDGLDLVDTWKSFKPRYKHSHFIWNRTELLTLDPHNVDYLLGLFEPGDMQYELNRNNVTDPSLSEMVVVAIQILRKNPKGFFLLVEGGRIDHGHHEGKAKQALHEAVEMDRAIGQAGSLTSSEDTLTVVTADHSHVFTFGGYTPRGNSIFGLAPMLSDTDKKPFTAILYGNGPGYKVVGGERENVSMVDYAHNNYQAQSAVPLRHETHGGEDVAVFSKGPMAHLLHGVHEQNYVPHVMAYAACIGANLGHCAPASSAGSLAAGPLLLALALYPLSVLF

Mucolipin-3 [5] = target: T2, Mucolipin-3 (Homo sapiens, UniProt Q8TDD5); assay: Dose response cell-based high-throughput screening assay for agonists of the transient receptor potential channel ML3 (TRPML3). [Related pubchem assays: 1526, 1424, 1448 ]; assay type: functional
T2 sequence (Q8TDD5 whole entry): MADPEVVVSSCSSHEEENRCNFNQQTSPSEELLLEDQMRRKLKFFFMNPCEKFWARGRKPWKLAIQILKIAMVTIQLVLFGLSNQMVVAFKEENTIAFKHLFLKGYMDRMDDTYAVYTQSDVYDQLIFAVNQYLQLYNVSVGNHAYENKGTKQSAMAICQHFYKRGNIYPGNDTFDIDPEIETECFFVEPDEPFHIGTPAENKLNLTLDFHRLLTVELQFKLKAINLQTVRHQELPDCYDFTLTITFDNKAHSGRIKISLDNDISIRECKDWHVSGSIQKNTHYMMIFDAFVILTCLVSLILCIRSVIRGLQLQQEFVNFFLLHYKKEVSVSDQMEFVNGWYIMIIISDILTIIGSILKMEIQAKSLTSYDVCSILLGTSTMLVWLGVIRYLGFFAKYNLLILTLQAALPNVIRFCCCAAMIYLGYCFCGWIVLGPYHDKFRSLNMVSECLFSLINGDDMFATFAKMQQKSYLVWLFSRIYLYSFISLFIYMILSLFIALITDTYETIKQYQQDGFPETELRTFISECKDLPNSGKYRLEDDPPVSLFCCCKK

Ion channel NompC [6] = target: T3, Ion channel NompC (Danio rerio, UniProt Q7T1G6); assay: Fluorescence counterscreen assay for TRPML3 agonists: dose response cell-based high-throughput screening assay to identify agonists of the transient receptor potential channel N1 (TRPN1). [Related pubchem assays: 1526, 1424, 1448 ]; assay type: functional
T3 sequence (Q7T1G6 whole entry): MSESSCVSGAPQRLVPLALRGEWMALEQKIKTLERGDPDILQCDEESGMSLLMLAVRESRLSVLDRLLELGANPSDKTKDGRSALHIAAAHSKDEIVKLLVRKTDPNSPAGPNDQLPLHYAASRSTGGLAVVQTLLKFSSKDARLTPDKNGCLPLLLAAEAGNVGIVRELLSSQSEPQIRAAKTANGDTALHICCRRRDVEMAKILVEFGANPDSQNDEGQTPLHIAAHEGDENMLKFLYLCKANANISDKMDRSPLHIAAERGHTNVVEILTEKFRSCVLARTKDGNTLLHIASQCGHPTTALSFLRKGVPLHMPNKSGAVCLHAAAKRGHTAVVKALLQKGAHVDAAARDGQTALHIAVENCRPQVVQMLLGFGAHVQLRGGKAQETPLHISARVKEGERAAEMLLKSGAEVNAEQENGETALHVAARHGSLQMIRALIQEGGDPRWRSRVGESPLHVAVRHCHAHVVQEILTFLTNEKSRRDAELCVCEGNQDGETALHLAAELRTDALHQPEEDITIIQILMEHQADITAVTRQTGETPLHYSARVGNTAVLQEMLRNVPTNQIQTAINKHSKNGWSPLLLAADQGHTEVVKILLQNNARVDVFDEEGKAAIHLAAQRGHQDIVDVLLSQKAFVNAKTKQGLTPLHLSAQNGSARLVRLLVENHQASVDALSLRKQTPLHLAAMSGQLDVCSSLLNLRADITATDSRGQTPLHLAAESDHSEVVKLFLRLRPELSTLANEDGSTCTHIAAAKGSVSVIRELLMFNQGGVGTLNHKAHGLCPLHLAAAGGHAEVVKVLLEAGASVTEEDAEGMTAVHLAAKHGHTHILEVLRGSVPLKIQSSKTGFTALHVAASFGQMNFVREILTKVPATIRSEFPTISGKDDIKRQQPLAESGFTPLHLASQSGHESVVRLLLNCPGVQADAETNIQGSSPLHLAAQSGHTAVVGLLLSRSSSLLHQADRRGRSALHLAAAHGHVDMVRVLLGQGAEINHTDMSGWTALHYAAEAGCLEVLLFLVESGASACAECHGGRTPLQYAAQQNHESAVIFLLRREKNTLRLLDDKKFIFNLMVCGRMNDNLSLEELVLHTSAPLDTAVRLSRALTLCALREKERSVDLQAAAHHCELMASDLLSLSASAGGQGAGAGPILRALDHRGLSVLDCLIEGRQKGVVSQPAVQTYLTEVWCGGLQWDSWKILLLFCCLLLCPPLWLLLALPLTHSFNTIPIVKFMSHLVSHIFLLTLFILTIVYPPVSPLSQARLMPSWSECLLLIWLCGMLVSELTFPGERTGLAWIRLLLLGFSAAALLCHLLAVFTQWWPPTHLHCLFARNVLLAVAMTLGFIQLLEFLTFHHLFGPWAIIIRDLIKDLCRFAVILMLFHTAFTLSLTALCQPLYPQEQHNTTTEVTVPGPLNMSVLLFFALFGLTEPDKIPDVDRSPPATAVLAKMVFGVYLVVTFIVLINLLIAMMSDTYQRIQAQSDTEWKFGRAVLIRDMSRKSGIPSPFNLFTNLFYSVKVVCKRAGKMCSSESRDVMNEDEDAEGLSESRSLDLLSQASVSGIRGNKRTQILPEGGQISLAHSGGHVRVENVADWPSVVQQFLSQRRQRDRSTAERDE

Mucolipin-3 [7] = target: T2, Mucolipin-3; assay: activators of mucolipin-3 and mucolipin-2 – cell-based, patch clamp, Fura-2 profiling panel, panel member TRPML3 Dose Response (AID 2116)
Ion channel NompC [8] = target: T3, Ion channel NompC; assay: activators of mucolipin-3 and mucolipin-2 – cell-based, […], Fura-2 profiling panel, panel member TRPN1 Dose Response (AID 2116)
[9] = target: NACHT, LRR and PYD domains-containing protein 3 (Homo sapiens, UniProt Q96P20); assay: NALP3 inhibitors in yeast, dose response, luminescent (AID 488799); assay type: functional
[10] = target: Dual specificity protein phosphatase 3 (Homo sapiens, UniProt P51452); assay: inhibition constants for human DUSP3 – biochemical, colorimetric, SAR follow-up (AID 2004)
Dual specificity protein phosphatase 3, sequence (P51452 whole entry): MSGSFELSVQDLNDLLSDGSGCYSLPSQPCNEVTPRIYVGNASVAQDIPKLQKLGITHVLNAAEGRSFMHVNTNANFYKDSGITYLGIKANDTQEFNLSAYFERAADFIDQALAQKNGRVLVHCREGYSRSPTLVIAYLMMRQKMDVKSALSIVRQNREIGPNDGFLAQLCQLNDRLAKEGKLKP

[11] = target: T4, Eukaryotic translation initiation factor 2-alpha kinase 3 (Homo sapiens, UniProt Q9NZJ5); assay: Dose response cell-based high-throughput screening assay to measure PERK inhibition. [Related pubchem assays: 1416 ]; assay type: functional
T4 sequence (Q9NZJ5 whole entry): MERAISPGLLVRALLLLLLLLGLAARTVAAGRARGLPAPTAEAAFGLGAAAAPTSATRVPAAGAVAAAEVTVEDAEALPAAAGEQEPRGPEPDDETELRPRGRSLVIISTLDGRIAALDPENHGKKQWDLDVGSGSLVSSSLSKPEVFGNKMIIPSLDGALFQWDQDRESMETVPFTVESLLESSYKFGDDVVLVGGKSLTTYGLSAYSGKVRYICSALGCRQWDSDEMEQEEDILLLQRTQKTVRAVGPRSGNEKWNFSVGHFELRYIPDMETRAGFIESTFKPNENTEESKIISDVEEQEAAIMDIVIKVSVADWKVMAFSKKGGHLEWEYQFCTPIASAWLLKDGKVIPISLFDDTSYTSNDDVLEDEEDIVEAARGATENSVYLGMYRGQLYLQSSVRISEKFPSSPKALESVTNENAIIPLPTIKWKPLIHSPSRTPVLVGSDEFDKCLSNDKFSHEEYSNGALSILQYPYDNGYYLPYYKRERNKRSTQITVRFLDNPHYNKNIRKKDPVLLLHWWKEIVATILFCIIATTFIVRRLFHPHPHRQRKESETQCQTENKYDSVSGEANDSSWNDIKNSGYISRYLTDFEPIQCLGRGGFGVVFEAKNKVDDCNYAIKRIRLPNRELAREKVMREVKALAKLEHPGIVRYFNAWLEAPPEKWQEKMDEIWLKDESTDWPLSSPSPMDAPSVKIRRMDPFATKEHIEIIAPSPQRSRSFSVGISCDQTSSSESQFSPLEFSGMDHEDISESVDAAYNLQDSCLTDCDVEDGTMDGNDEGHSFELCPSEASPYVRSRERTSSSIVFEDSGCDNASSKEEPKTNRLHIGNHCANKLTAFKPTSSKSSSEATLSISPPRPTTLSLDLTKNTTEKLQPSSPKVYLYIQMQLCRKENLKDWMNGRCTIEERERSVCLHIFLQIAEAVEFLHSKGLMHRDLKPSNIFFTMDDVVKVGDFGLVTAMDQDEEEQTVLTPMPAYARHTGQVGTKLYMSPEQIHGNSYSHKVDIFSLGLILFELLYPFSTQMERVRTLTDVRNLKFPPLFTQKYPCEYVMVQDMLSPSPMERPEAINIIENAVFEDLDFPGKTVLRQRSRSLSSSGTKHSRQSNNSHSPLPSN

[12] = target: T4, Eukaryotic translation initiation factor 2-alpha kinase 3; assay: Counterscreen assay for PERK inhibitors: Dose response cell-based high throughput screening assay to measure inhibition of PERK at 6 hours. [Related pubchem assays: 1522, 1416 ]; assay type: functional
Streptococcus = assay: Luminescence Microorganism-Based Dose Response Follow up to Identify Compounds Cytotoxic to Streptococcus. [Related pubchem assays: 1677 (Project Summary), 1915, 1914, 1902 (Retest at Dose), 1900 (Counter Screen), 1662 (Primary HTS)]; assay type: functional, organism-based

Potassium voltage-gated channel subfamily KQT member 2, sequence (O88943 whole entry): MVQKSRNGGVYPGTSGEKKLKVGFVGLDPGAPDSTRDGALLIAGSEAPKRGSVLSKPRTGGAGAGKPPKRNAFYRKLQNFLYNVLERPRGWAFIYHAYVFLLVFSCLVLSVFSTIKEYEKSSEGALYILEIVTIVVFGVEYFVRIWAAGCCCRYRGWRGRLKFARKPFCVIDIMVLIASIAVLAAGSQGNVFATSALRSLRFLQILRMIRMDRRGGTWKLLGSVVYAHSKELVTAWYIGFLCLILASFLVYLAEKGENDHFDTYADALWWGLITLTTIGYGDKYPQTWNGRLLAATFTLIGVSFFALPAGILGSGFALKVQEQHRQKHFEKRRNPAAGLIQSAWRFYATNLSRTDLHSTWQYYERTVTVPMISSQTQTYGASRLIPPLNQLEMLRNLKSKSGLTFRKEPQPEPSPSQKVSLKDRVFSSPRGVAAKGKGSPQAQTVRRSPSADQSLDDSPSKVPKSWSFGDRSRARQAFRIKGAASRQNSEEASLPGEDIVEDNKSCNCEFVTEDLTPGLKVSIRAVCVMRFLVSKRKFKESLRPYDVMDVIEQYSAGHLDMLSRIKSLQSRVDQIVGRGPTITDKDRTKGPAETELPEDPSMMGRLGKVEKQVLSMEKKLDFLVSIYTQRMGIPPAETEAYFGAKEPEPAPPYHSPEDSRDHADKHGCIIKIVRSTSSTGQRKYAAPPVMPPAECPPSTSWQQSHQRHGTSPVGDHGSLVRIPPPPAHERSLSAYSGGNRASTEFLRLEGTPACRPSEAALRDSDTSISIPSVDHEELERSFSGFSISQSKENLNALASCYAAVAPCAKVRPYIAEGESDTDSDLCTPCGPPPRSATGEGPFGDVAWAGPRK

Structure (SMILES): S=C(Nc1ccc(Nc2ccccc2)cc1)Nc1cccnc1
- EC50 [1]: 11 µM (active)

Structure (SMILES): CS(=O)(=O)c1cc([N+](=O)[O-])c(Sc2nc3ccccc3[nH]2)c([N+](=O)[O-])c1
- IC50 (Beta-galactosidase): > 66.6 µM (inactive)
- EC50 [2]: > 104 µM (inactive)

Structure (SMILES): Cc1ccc(-c2cc(-c3ccccc3[N+](=O)[O-])[nH]n2)c(O)c1
- EC50 [3]: 2.35 µM (inconclusive)
- EC50 (H4): > 120 µM (not active)
- EC50 [4]: 80.2 µM (not active)

Structure (SMILES): O=S(=O)(Nc1ccccc1N1CCCCC1)c1ccc(Cl)s1
- EC50 (Mucolipin-3 [5]): 0.872 µM (active)
- EC50 (Ion channel NompC [6]): > 29.9 µM (not active)
- EC50 (Mucolipin-3 [7]): 0.62 µM (active)
- EC50 (Ion channel NompC [8]): > 29.9 µM (inactive)

Structure (SMILES): COc1cccc(NC(=O)c2ccccc2)c1
- IC50 [9]: 13.7 µM (active)

Structure (SMILES): CC(Oc1ccc2oc(-c3ccccc3)c(C(=O)O)c2c1)C(=O)O (stereo not given)
- Ki [10]: 102 µM (inactive)

Structure (SMILES): Cn1nccc1NC(=O)Nc1ccc(OC(F)(F)F)cc1
- EC50 [11]: > 55.7 µM (not active)
- EC50 [12]: > 55.7 µM (not active)

Structure (SMILES): CC(C)(C)N/N=C1\CC(c2ccccc2)Oc2ccccc21 (stereo not given)
- EC50 (Streptococcus): > 500 µM (not active)
